# Experimental data published in PubChem BioAssay AID2060604 (Molecular Pharmacology Branch, DTP, NCI, 2025).
# Values joined by “and” are separate entries in the source; they are usually repeats but may differ in a detail not shown here. Identical values can stand only once.
# System: 379773-124-R-J2-PDC complex spheroids, viability % test/control
# Assay: Anticancer human tumor 379773-124-R-J2-PDC patient-derived endometrial carcinoma cell line growth inhibition [CLK]
# Conditions: for viability, T/C: stronger effect = lower value
# Text: A high-throughput screen of multi-cell type tumor spheroids was designed to identify active combinations of […] and targeted small molecules. Complex spheroids include a stromal component modeled by human endothelial cells (HUVEC) and fibroblasts modeled by human mesenchymal stem cells (MSCs). The concentration ranges selected for each drug and investigational agent were based upon clinically achievable concentrations if the clinical Cmax of the agent was known.
# Compounds. The drugs and investigational agents: cirtuvivint (SM08502; NSC835563), CC-671 (NSC850746), vemurafenib (NSC761431), tapotoclax (NSC804041), sotorasib (NSC818433), adagrasib (NSC831453), MRTX-1133 (NSC836407), BAY2416964 (NSC825713), copanlisib (NSC816437), inavolisib (NSC800729), abemaciclib (NSC768073), osimertinib (NSC779217), entinostat (NSC756642), eltanexor (KPT-8602, NSC794443), venetoclax (NSC766270), ceralasertib (NSC777638), bortezomib (NSC756655), olaparib (NSC753686), talazoparib (NSC767125), alisertib (NSC759677), peposertib (NSC802822), gemcitabine (NSC613327), 5-fluorouracil (NSC19893), SN-38 (NSC673596), oxaliplatin (NSC266046), paclitaxel (NSC125973), and doxorubicin (NSC123127), were obtained from the National Cancer Institute (NCI) Developmental Therapeutics Program Chemical Repository. The FDA-approved anticancer drug set is available from the Developmental Therapeutics Program at https://dtp.cancer.gov/organization/dscb/obtaining/available plates.htm. […] The stock solutions were prepared in dimethyl sulfoxide (DMSO, Sigma-Aldrich, St. Louis, MO, cat. D2650), except for the platinum complexes which were prepared in saline (Quality Biological, Gaithersburg, MD, cat. 114-055-101), at 800-fold the tested concentration and stored at -70 degrees C prior to their use. All drugs and investigational agents were tested over a range starting from a high concentration at or near the clinical Cmax and decreasing in half-log increments. If the clinical Cmax for an agent had not been determined, the highest concentration tested was 10 microM.
# Cell Culture. All cells were maintained in an incubator at 37 degrees C and 5% CO2 with 95% humidity. The PDC lines were cultured according to standard operating procedures established by the NCI PDMR. Briefly, all PDCs were thawed and cultured in Matrigel-coated flasks prepared with a working solution of 1X Ham's F-12 nutrient mix, without supplementation (Invitrogen, Waltham, MA, cat. 11765054), 100 U/mL penicillin-streptomycin (Invitrogen, cat. 15140122), and 2.5% Matrigel (Corning Inc., Corning, NY, cat. 354248) for the first three passages. The 947758-054-R-J2-PDC line was cultured in 6B/Colon 1A media, which includes advanced DMEM/F-12 (Thermo Fisher Scientific, cat. 12634028), 10 mM HEPES (Thermo Fisher Scientific, cat. 15630080), 1X GlutaMAX supplement (Thermo Fisher Scientific, cat. 35050061), 0.1 mg/mL primocin (InvivoGen, cat. ant-pm-2), 10% defined fetal bovine serum, heat inactivated (HyClone Laboratories Inc., cat. SH30070.03HI), 1.25 mM N-Acetyl-L-cysteine (Sigma-Aldrich, cat. A9165), 10 mM nicotinamide (Sigma-Aldrich, cat. N0636), 1X B-27 supplement (Thermo Fisher Scientific, cat. 17504044), 1X N-2 supplement (Thermo Fisher Scientific, cat. 17502048), and 10 microM Y-27632 dihydrochloride (Tocris Bioscience, cat. 1254). The 876862-298-R-J1-PDC was cultured in 6E media, which includes all 6B/Colon 1A media components plus 50% L-WRN conditioned media (ATCC, cat. CRL-3276), 50 ng/mL recombinant human EGF recombinant protein (hEGF; Thermo Fisher Scientific, cat. PHG0311), 10 ng/mL recombinant human fibroblast growth factor 10 (hGFG-10; PeproTech, cat. 100-26), 1 ng/mL recombinant human fibroblast growth factor 2 (hFGF-2; PeproTech, cat. 100-18B), and 1 µM prostaglandin E2 (PGE2; Tocris, cat. 2296). The 227483-062-R1-J1-PDC line was cultured in Panc media, containing all 6E components except hFGF-2, with the addition of 500 nM SB-431542 (Selleckchem, cat. S1067) and 10 nM gastrin (Tocris, cat. 3006). […]
# [1] = curve of first compound, second compound 0.0316 µM
# [2] = curve of first compound, second compound 0.1 µM
# [3] = curve of first compound, second compound 0.316 µM
# [4] = curve of first compound, second compound 1 µM
# [5] = curve of first compound, second compound 3.16 µM
# [6] = curve of first compound, second compound 10 µM
# 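Also: compound exposure lasted seven days before the viability readout.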
# 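For viability, T/C in this document: 100% = DMSO vehicle control wells.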
structure (smiles),measurement,setting,value
C=CC(=O)Nc1cc(Nc2nccc(-c3cn(C)c4ccccc34)n2)c(OC)cc1N(C)CCN(C)C + CNC(=O)c1ccc(Nc2nc(OC3CCCC3)c3c(-c4ccc5nc(C)oc5c4)c[nH]c3n2)c(OC)c1,IC50,[1],> 300 nM
same,IC50,[2],< 0.949 nM
same,IC50,[3],< 0.949 nM
same,IC50,[4],< 0.949 nM
same,IC50,[5],< 0.949 nM
same,IC50,[6],< 0.949 nM
same,"viability, T/C","second compound 0.0316 µM, first compound 0.000949 µM",82.7%
same,"viability, T/C","second compound 0.0316 µM, first compound 0.003 µM",84.2%
same,"viability, T/C","second compound 0.0316 µM, first compound 0.00949 µM",78.9%
same,"viability, T/C","second compound 0.0316 µM, first compound 0.03 µM",73%
same,"viability, T/C","second compound 0.0316 µM, first compound 0.0949 µM",77.6%
same,"viability, T/C","second compound 0.0316 µM, first compound 0.3 µM",58.1%
same,"viability, T/C","second compound 0.1 µM, first compound 0.000949 µM",35.2%
same,"viability, T/C","second compound 0.1 µM, first compound 0.003 µM",37%
same,"viability, T/C","second compound 0.1 µM, first compound 0.00949 µM",42.6%
same,"viability, T/C","second compound 0.1 µM, first compound 0.03 µM",31.2%
same,"viability, T/C","second compound 0.1 µM, first compound 0.0949 µM",32.5%
same,"viability, T/C","second compound 0.1 µM, first compound 0.3 µM",38%
same,"viability, T/C","second compound 0.316 µM, first compound 0.000949 µM",44.7%
same,"viability, T/C","second compound 0.316 µM, first compound 0.003 µM",39.9%
same,"viability, T/C","second compound 0.316 µM, first compound 0.00949 µM",32%
same,"viability, T/C","second compound 0.316 µM, first compound 0.03 µM",34.5%
same,"viability, T/C","second compound 0.316 µM, first compound 0.0949 µM",31.3%
same,"viability, T/C","second compound 0.316 µM, first compound 0.3 µM",26.2%
same,"viability, T/C","second compound 1 µM, first compound 0.000949 µM",45.4%
same,"viability, T/C","second compound 1 µM, first compound 0.003 µM",39%
same,"viability, T/C","second compound 1 µM, first compound 0.00949 µM",31.2%
same,"viability, T/C","second compound 1 µM, first compound 0.03 µM",28.8%
same,"viability, T/C","second compound 1 µM, first compound 0.0949 µM",26.6%
same,"viability, T/C","second compound 1 µM, first compound 0.3 µM",30.4%
same,"viability, T/C","second compound 3.16 µM, first compound 0.000949 µM",30.1%
same,"viability, T/C","second compound 3.16 µM, first compound 0.003 µM",37.5%
same,"viability, T/C","second compound 3.16 µM, first compound 0.00949 µM",32.5%
same,"viability, T/C","second compound 3.16 µM, first compound 0.03 µM",34.3%
same,"viability, T/C","second compound 3.16 µM, first compound 0.0949 µM",25.7%
same,"viability, T/C","second compound 3.16 µM, first compound 0.3 µM",28.2%
same,"viability, T/C","second compound 10 µM, first compound 0.000949 µM",30.9%
same,"viability, T/C","second compound 10 µM, first compound 0.003 µM",30.1%
same,"viability, T/C","second compound 10 µM, first compound 0.00949 µM",27.1%
same,"viability, T/C","second compound 10 µM, first compound 0.03 µM",35.1%
same,"viability, T/C","second compound 10 µM, first compound 0.0949 µM",28%
same,"viability, T/C","second compound 10 µM, first compound 0.3 µM",25.9%
COc1ccc([C@@H](O)c2cc(-c3ncnc4cc(N5CCOCC5)ccc34)c(F)cc2Cl)nn1,"viability, T/C",compound 0.0316 µM,95.4% and 83.8%
same,"viability, T/C",compound 0.1 µM,98.1% and 79.4%
same,"viability, T/C",compound 0.316 µM,81.3% and 79.2%
same,"viability, T/C",compound 1 µM,84.2% and 84.5%
same,"viability, T/C",compound 3.16 µM,68% and 79%
same,"viability, T/C",compound 10 µM,33.4% and 29.9%
same,IC50,curve of compound,5670 nM and 6250 nM
C#Cc1c(F)ccc2cc(O)cc(-c3ncc4c(N5CC6CCC(C5)N6)nc(OCC56CCCN5CC(F)C6)nc4c3F)c12 (stereo unspecified) + CNC(=O)c1ccc(Nc2nc(OC3CCCC3)c3c(-c4ccc5nc(C)oc5c4)c[nH]c3n2)c(OC)c1,IC50,[1],> 10000 nM
same,IC50,[2],< 31.6 nM
same,IC50,[3],< 31.6 nM
same,IC50,[4],< 31.6 nM
same,IC50,[5],< 31.6 nM
same,IC50,[6],< 31.6 nM
same,"viability, T/C","second compound 0.0316 µM, first compound 0.0316 µM",73.2%
same,"viability, T/C","second compound 0.0316 µM, first compound 0.1 µM",65%
same,"viability, T/C","second compound 0.0316 µM, first compound 0.316 µM",72.9%
same,"viability, T/C","second compound 0.0316 µM, first compound 1 µM",79.1%
same,"viability, T/C","second compound 0.0316 µM, first compound 3.16 µM",71.3%
same,"viability, T/C","second compound 0.0316 µM, first compound 10 µM",62%
same,"viability, T/C","second compound 0.1 µM, first compound 0.0316 µM",41.2%
same,"viability, T/C","second compound 0.1 µM, first compound 0.1 µM",39%
same,"viability, T/C","second compound 0.1 µM, first compound 0.316 µM",38.3%
same,"viability, T/C","second compound 0.1 µM, first compound 1 µM",32.4%
same,"viability, T/C","second compound 0.1 µM, first compound 3.16 µM",32.2%
same,"viability, T/C","second compound 0.1 µM, first compound 10 µM",36%
same,"viability, T/C","second compound 0.316 µM, first compound 0.0316 µM",41%
same,"viability, T/C","second compound 0.316 µM, first compound 0.1 µM",33.1%
same,"viability, T/C","second compound 0.316 µM, first compound 0.316 µM",39%
same,"viability, T/C","second compound 0.316 µM, first compound 1 µM",37.1%
same,"viability, T/C","second compound 0.316 µM, first compound 3.16 µM",33.4%
same,"viability, T/C","second compound 0.316 µM, first compound 10 µM",28.4%
same,"viability, T/C","second compound 1 µM, first compound 0.0316 µM",38.8%
same,"viability, T/C","second compound 1 µM, first compound 0.1 µM",33%
same,"viability, T/C","second compound 1 µM, first compound 0.316 µM",25.8%
same,"viability, T/C","second compound 1 µM, first compound 1 µM",29.1%
same,"viability, T/C","second compound 1 µM, first compound 3.16 µM",33.1%
same,"viability, T/C","second compound 1 µM, first compound 10 µM",29%
same,"viability, T/C","second compound 3.16 µM, first compound 0.0316 µM",31.9%
same,"viability, T/C","second compound 3.16 µM, first compound 0.1 µM",27.4%
same,"viability, T/C","second compound 3.16 µM, first compound 0.316 µM",28.3%
same,"viability, T/C","second compound 3.16 µM, first compound 1 µM",31.4%
same,"viability, T/C","second compound 3.16 µM, first compound 3.16 µM",28%
same,"viability, T/C","second compound 3.16 µM, first compound 10 µM",23.2%
same,"viability, T/C","second compound 10 µM, first compound 0.0316 µM",32.7%
same,"viability, T/C","second compound 10 µM, first compound 0.1 µM",27.1%
same,"viability, T/C","second compound 10 µM, first compound 0.316 µM",28%
same,"viability, T/C","second compound 10 µM, first compound 1 µM",27.1%
same,"viability, T/C","second compound 10 µM, first compound 3.16 µM",27.4%
same,"viability, T/C","second compound 10 µM, first compound 10 µM",27.1%
